According to patent US20090298804A1, “Novel Compounds and Methods for Their Production” (priority 2006, published 2009):

Tests used:
[1] = tested on: Reverse transcriptase; conditions: cited from earlier work
[2] = molecular target: terminal deoxynucleotidyl transferase (Homo sapiens, UniProt P04053); conditions: cited from earlier work
[3] = tested on: CNXF 498NL; experiment: Monolayer proliferation assay (modified propidium iodide assay), CNXF 498NL; assay type: cell-based, human; conditions: CNXF 498NL (CNS), 4 days continuous exposure
Protocol: (§1) In vitro evaluation of compounds for anticancer activity in a panel of human tumour cell lines in a monolayer proliferation assay was carried out at the Oncotest Testing Facility, Institute for Experimental Oncology, Oncotest GmbH, Freiburg.
(§2) The Oncotest cell lines are established from human tumor xenografts as described by Roth et al., (1999). The origin of the donor xenografts was described by Fiebig et al., (1999). Other cell lines were either obtained from the NCI (DU145, MCF-7) or purchased from DSMZ, Braunschweig, Germany.
(§3) All cell lines, unless otherwise specified, were grown at 37° C. in a humidified atmosphere (95% air, 5% CO2) in a ‘ready-mix’ medium containing RPMI 1640 medium, 10% fetal calf serum, and 0.1 mg/mL gentamicin (PAA, Cölbe, Germany).
(§4) A modified propidium iodide assay was used to assess the effects of the test compound(s) on the growth of human tumour cell lines (Dengler et al., (1995)).
(§5) Briefly, cells were harvested from exponential phase cultures by trypsinization, counted and plated in 96 well flat-bottomed microtitre plates at a cell density dependent on the cell line (5-10.000 viable cells/well). […] After thawing the plates, fluorescence was measured using the Cytofluor 4000 microplate reader (excitation 530 nm, emission 620 nm), giving a direct relationship to the total number of viable cells.
(§6) Growth inhibition was expressed as treated/control×100 (% T/C). […]

[4] = tested on: CXF HT29; experiment: Monolayer proliferation assay (modified propidium iodide assay), CXF HT29; assay type: cell-based, human; conditions: CXF HT29 (colon), 4 days continuous exposure
Protocol: as §1, §2, §3, §4, §5, §6

[5] = tested on: LXF 1121L; experiment: Monolayer proliferation assay (modified propidium iodide assay), LXF 1121L; assay type: cell-based, human; conditions: LXF 1121L (lung, large cell ca), 4 days continuous exposure
Protocol: as §1, §2, §3, §4, §5, §6

[6] = tested on: MCF-7; experiment: Monolayer proliferation assay (modified propidium iodide assay), MCF-7; assay type: cell-based, human; conditions: MCF-7 (breast), 4 days continuous exposure
Protocol: as §1, §2, §3, §4, §5, §6

[7] = tested on: MEXF 394NL; experiment: Monolayer proliferation assay (modified propidium iodide assay), MEXF 394NL; assay type: cell-based, human; conditions: MEXF 394NL (melanoma), 4 days continuous exposure
Protocol: as §1, §2, §3, §4, §5, §6

[8] = tested on: DU145; experiment: Monolayer proliferation assay (modified propidium iodide assay), DU145; assay type: cell-based, human; conditions: DU145 (prostate, PTEN positive), 4 days continuous exposure
Protocol: as §1, §2, §3, §4, §5, §6

[9] = molecular target: Hsp90 (Homo sapiens, UniProt P07900); conditions: cited from earlier work

Chain of terminal deoxynucleotidyl transferase (P04053 whole entry, species assumed): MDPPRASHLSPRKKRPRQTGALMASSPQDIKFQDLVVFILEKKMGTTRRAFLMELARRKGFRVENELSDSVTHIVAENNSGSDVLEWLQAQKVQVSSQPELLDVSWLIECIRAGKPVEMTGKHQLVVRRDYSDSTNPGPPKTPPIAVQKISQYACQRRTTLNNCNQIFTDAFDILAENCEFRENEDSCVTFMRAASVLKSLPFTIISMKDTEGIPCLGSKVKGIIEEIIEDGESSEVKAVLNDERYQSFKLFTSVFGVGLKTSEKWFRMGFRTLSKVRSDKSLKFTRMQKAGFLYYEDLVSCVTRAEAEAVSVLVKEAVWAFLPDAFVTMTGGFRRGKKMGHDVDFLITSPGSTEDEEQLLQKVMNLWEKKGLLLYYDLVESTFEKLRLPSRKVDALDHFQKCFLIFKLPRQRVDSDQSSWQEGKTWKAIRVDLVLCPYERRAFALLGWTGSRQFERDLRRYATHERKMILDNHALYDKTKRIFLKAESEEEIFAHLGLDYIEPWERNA

CO[C@H]1[C@@H](OC)C[C@H](C)[C@@H](OC)C2=CC(=O)C=C(NC(=O)/C(C)=C/C=C\[C@H](C)[C@@H](OC(N)=O)/C(C)=C/[C@@H]1C)C2=O [Macbecin, macbecin]
Reverse transcriptase activity inhibition [1]: not inhibited
terminal deoxynucleotidyl transferase activity inhibition [2]: not inhibited

15-desmethoxy macbecin [compound 15]
Test/Control (%) at drug concentration ([3]; 1 μg/mL): 44.3%
Test/Control (%) at drug concentration ([3]; 10 μg/mL): 12.7%
Test/Control (%) at drug concentration ([4]; 1 μg/mL): 54.7%
Test/Control (%) at drug concentration ([4]; 10 μg/mL): 13%
Test/Control (%) at drug concentration ([5]; 1 μg/mL): 47.7%
Test/Control (%) at drug concentration ([5]; 10 μg/mL): 14.7%
Test/Control (%) at drug concentration ([6]; 1 μg/mL): 53.3%
Test/Control (%) at drug concentration ([6]; 10 μg/mL): 13%
Test/Control (%) at drug concentration ([7]; 1 μg/mL): 24.3%
Test/Control (%) at drug concentration ([7]; 10 μg/mL): 4.7%
Test/Control (%) at drug concentration ([8]; 1 μg/mL): 30.3%
Test/Control (%) at drug concentration ([8]; 10 μg/mL): 6.3%

CO[C@H]1C[C@H](C)Cc2cc(O)cc(c2)NC(=O)/C=C/CC[C@H](OC)[C@@H](OC(N)=O)/C(C)=C/[C@H](C)[C@H]1O [KOSN1559]
binding affinity to Hsp90, greater than 17-AAG ([9]; relative to 17-AAG): 8 fold
binding affinity to Hsp90, greater than geldanamycin ([9]; relative to geldanamycin): 4 fold
